Results published in patent publication US20240041991A1, “STABLE LIQUID DISPERSINB COMPOSITIONS” (KANE BIOTECH INC., priority 2020, published 2024).
Like-named read-outs stand apart in the source and are kept apart here. Marks after values point to notes of the source that are not given here.

What was measured:
[1] = system: DispersinB; format: biochemical, Aggregatibacter actinomycetemcomitans; conditions: 50 mM citrate buffer pH 5.9; salt concentration as in label; control with no salts = 100%
Excerpt: Activity of the control sample with no salts was considered 100%.

[2] = system: DispersinB; conditions: pH 5.9; 50 mM Citrate; 100 mM NaCl pH 5.9 control = 100%
Description: DispersinB enzyme solutions (100 μg/ml) were prepared in 50 mM citrate buffer, containing 200 mM K2SO4. The pH was adjusted (5.4 to 5.9). DispersinB enzymatic activity was measured using β-N-Acetylglucosaminidase assay kit from Sigma (product code CS0780) in 96-well microtiter plate following the manufacturer's instructions. The data was represented as % enzymatic activity in comparison to enzyme activity of control sample that contained 100 μg/ml DispersinB in 50 mM citrate buffer (pH 5.9) containing 100 mM NaCl Activity of the control sample was considered 100%.

[3] = system: DispersinB; experiment: Effect of buffer and pH on DispersinB enzymatic activity (β-N-Acetylglucosaminidase assay kit); format: biochemical, Aggregatibacter actinomycetemcomitans; conditions: buffer strength 100 mM, 100 mM NaCl, citrate pH 5.9 = 100%
Description: Lyophilized DispersinB powder was dissolved in selected buffers (citrate, phosphate) of defined pH (5.5 -7.5). The DispersinB concentration was adjusted to 100 μg/ml. Salt concentration was maintained at 100 mM sodium chloride. […] The enzymatic activity was presented as percentages in comparison to enzymatic activity of DispersinB in 100 mM Citrate buffer, 100 mM NaCl, pH 5.9, which was considered 100%.
Enzymatic activity in citrate buffer with a pH of 5.9 was considered 100%. * indicates statistically significant (p<0.05) values in paired two tailed t-test, each treatment was compared with enzymatic activity of DispersinB in corresponding buffer of pH 5.9.

[4] = system: DispersinB
Description: DispersinB enzyme (100 μg/ml) solutions in 50 mM citrate buffer and phosphate buffer (pH 5.9), with 100 mM NaCl containing EDTA (0.5%-10%) were tested for DispersinB enzymatic activity following β-N-Acetylglucosaminidase assay.

[5] = system: DispersinB; format: biochemical, Aggregatibacter actinomycetemcomitans; conditions: for % enzymatic activity of DispersinB (Mean): polyol % as in label
Description: Samples from each formula was incubated at 3 different temperatures (42° C., 52° C. and 62° C.) for 3 hours. Following a 3 hour incubation, the samples were brought to room temperature for enzymatic activity assay.
Two-tailed paired T-test was performed by to compare each polyol containing treatment with the treatment devoid of polyol. Treatment with probability values (p) less than 5% (0.05) was considered significant.

## N.N.O=S(=O)(O)O [100 mM (NH4)2SO4, (NH4)2SO4]
[1]
  % enzymatic activity of DispersinB (Mean): 91%

## [Cl-].[K+] [100 mM KCl, KCl]
[1]
  % enzymatic activity of DispersinB (Mean): 152* %

## O=[N+]([O-])[O-].[K+] [100 mM KNO3, KNO3]
[1]
  % enzymatic activity of DispersinB (Mean): 135* %

## [Cl-].[Li+] [100 mM LiCl, LiCl]
[1]
  % enzymatic activity of DispersinB (Mean): 97%

## [Cl-].[Cl-].[Mg+2] [100 mM MgCl2, MgCl2]
[1]
  % enzymatic activity of DispersinB (Mean): 81* %

## O=S(=O)([O-])[O-].[Mg+2] [100 mM MgSO4, MgSO4]
[1]
  % enzymatic activity of DispersinB (Mean): 87%

## CC(=O)O.N [100 mM NH4 CH2COO, NH4 CH2COO]
[1]
  % enzymatic activity of DispersinB (Mean): 66* %

## Cl.N [100 mM NH4Cl, NH4Cl]
[1]
  % enzymatic activity of DispersinB (Mean): 129* %

## O=S(=O)([O-])[O-].[Na+].[Na+] [100 mM Na2SO4, Na2SO4]
[1]
  % enzymatic activity of DispersinB (Mean): 174* %

## [Cl-].[Na+] [100 mM NaCl, NaCl]
[2]
  % Activity: 100.00^b %
[1]
  % enzymatic activity of DispersinB (Mean): 179* %

## O=C(O)CC(O)(CC(=O)O)C(=O)O [Citrate]
[3]; pH 5.5
  % Enzyme activity: 72* %
[3]; pH 5.9
  % Enzyme activity: 100%
[3]; pH 6
  % Enzyme activity: 76* %
[3]; pH 6.5
  % Enzyme activity: 53* %
[3]; pH 7
  % Enzyme activity: 35* %
[3]; pH 7.5
  % Enzyme activity: 21* %

## O=C(O)CN(CCN(CC(=O)O)CC(=O)O)CC(=O)O [EDTA, Ethylenediaminetetraacetic acid]
[4]; Citrate buffer pH 5.9, 100 mM NaCl, EDTA 0 mg/ml
  % Activity: 100.00%
[4]; Citrate buffer pH 5.9, 100 mM NaCl, EDTA 0.5 mg/ml
  % Activity: 101.45%
[4]; Citrate buffer pH 5.9, 100 mM NaCl, EDTA 1 mg/ml
  % Activity: 95.86%
[4]; Citrate buffer pH 5.9, 100 mM NaCl, EDTA 2.5 mg/ml
  % Activity: 104.19%
[4]; Citrate buffer pH 5.9, 100 mM NaCl, EDTA 9.4 mg/ml
  % Activity: 83.18%
[4]; Phosphate buffer pH 5.9, 100 mM NaCl, EDTA 0 mg/ml
  % Activity: 100.00%
[4]; Phosphate buffer pH 5.9, 100 mM NaCl, EDTA 0.5 mg/ml
  % Activity: 102.52%
[4]; Phosphate buffer pH 5.9, 100 mM NaCl, EDTA 1 mg/ml
  % Activity: 99.78%
[4]; Phosphate buffer pH 5.9, 100 mM NaCl, EDTA 2.5 mg/ml
  % Activity: 91.13%
[4]; Phosphate buffer pH 5.9, 100 mM NaCl, EDTA 9.4 mg/ml
  % Activity: 66.51%
[4]; citrate buffer
  concentrations of EDTA that tend to reduce the enzyme activity: greater than 2.5 mg/ml
[4]; phosphate buffer
  concentrations of EDTA that tend to reduce the enzyme activity: greater than 1 mg/ml

## OC[C@@H](O)[C@H](O)[C@@H](O)CO [xylitol, Xylitol]
[5]; 4° C., freshly made control without polyol = 100%, listed as 0.25% Xylitol
  % enzymatic activity of DispersinB (Mean): 98%
[5]; 4° C., freshly made control without polyol = 100%, listed as 0.5% Xylitol
  % enzymatic activity of DispersinB (Mean): 106%
[5]; 4° C., freshly made control without polyol = 100%, listed as 1% Xylitol
  % enzymatic activity of DispersinB (Mean): 97%
[5]; 4° C., freshly made control without polyol = 100%, listed as 2% Xylitol
  % enzymatic activity of DispersinB (Mean): 117* %
[5]; 4° C., freshly made control without polyol = 100%, listed as 4% Xylitol
  % enzymatic activity of DispersinB (Mean): 120* %
[5]; 4° C., freshly made control without polyol = 100%, listed as 6% Xylitol
  % enzymatic activity of DispersinB (Mean): 115%
[5]; 4° C., freshly made control without polyol = 100%, listed as 8% Xylitol
  % enzymatic activity of DispersinB (Mean): 118%
[5]; 4° C., freshly made control without polyol = 100%, listed as 10% Xylitol
  % enzymatic activity of DispersinB (Mean): 107%
[5]; 4° C., freshly made control without polyol = 100%, listed as 20% Xylitol
  % enzymatic activity of DispersinB (Mean): 91* %
[5]; 4° C., freshly made control without polyol = 100%, listed as 30% Xylitol
  % enzymatic activity of DispersinB (Mean): 85* %
[5]; 4° C., freshly made control without polyol = 100%, listed as 40% Xylitol
  % enzymatic activity of DispersinB (Mean): 86* %
[5]; 42° C. for 3 hours, control without polyol = 100%, listed as 0.25% Xylitol
  % enzymatic activity of DispersinB (Mean): 90%
[5]; 42° C. for 3 hours, control without polyol = 100%, listed as 0.5% Xylitol
  % enzymatic activity of DispersinB (Mean): 85%
[5]; 42° C. for 3 hours, control without polyol = 100%, listed as 1% Xylitol
  % enzymatic activity of DispersinB (Mean): 88%
[5]; 42° C. for 3 hours, control without polyol = 100%, listed as 2% Xylitol
  % enzymatic activity of DispersinB (Mean): 101* %
[5]; 42° C. for 3 hours, control without polyol = 100%, listed as 4% Xylitol
  % enzymatic activity of DispersinB (Mean): 91%
[5]; 42° C. for 3 hours, control without polyol = 100%, listed as 6% Xylitol
  % enzymatic activity of DispersinB (Mean): 97%
[5]; 42° C. for 3 hours, control without polyol = 100%, listed as 8% Xylitol
  % enzymatic activity of DispersinB (Mean): 93%
[5]; 42° C. for 3 hours, control without polyol = 100%, listed as 10% Xylitol
  % enzymatic activity of DispersinB (Mean): 86%
[5]; 42° C. for 3 hours, control without polyol = 100%, listed as 20% Xylitol
  % enzymatic activity of DispersinB (Mean): 80%
[5]; 42° C. for 3 hours, control without polyol = 100%, listed as 30% Xylitol
  % enzymatic activity of DispersinB (Mean): 71* %
[5]; 42° C. for 3 hours, control without polyol = 100%, listed as 40% Xylitol
  % enzymatic activity of DispersinB (Mean): 72* %
[5]; 52° C. for 3 hours, control without polyol = 100%, listed as 0.25% Xylitol
  % enzymatic activity of DispersinB (Mean): 6%
[5]; 52° C. for 3 hours, control without polyol = 100%, listed as 0.5% Xylitol
  % enzymatic activity of DispersinB (Mean): 7%
[5]; 52° C. for 3 hours, control without polyol = 100%, listed as 1% Xylitol
  % enzymatic activity of DispersinB (Mean): 9* %
[5]; 52° C. for 3 hours, control without polyol = 100%, listed as 2% Xylitol
  % enzymatic activity of DispersinB (Mean): 17* %
[5]; 52° C. for 3 hours, control without polyol = 100%, listed as 4% Xylitol
  % enzymatic activity of DispersinB (Mean): 26* %
[5]; 52° C. for 3 hours, control without polyol = 100%, listed as 6% Xylitol
  % enzymatic activity of DispersinB (Mean): 43* %
[5]; 52° C. for 3 hours, control without polyol = 100%, listed as 8% Xylitol
  % enzymatic activity of DispersinB (Mean): 53* %
[5]; 52° C. for 3 hours, control without polyol = 100%, listed as 10% Xylitol
  % enzymatic activity of DispersinB (Mean): 61* %
[5]; 52° C. for 3 hours, control without polyol = 100%, listed as 20% Xylitol
  % enzymatic activity of DispersinB (Mean): 69* %
[5]; 52° C. for 3 hours, control without polyol = 100%, listed as 30% Xylitol
  % enzymatic activity of DispersinB (Mean): 70* %
[5]; 52° C. for 3 hours, control without polyol = 100%, listed as 40% Xylitol
  % enzymatic activity of DispersinB (Mean): 68* %
[5]; 62° C. for 3 hours, control without polyol = 100%, listed as 8% Xylitol
  % enzymatic activity of DispersinB (Mean): 1* %
[5]; 62° C. for 3 hours, control without polyol = 100%, listed as 10% Xylitol
  % enzymatic activity of DispersinB (Mean): 2* %
[5]; 62° C. for 3 hours, control without polyol = 100%, listed as 20% Xylitol
  % enzymatic activity of DispersinB (Mean): 2* %
[5]; 62° C. for 3 hours, control without polyol = 100%, listed as 30% Xylitol
  % enzymatic activity of DispersinB (Mean): 3* %
[5]; 62° C. for 3 hours, control without polyol = 100%, listed as 40% Xylitol
  % enzymatic activity of DispersinB (Mean): 42* %

## Phosphate
[3]; pH 5.5
  % Enzyme activity: 80* %
[3]; pH 5.9
  % Enzyme activity: 100%
[3]; pH 6
  % Enzyme activity: 81* %
[3]; pH 6.5
  % Enzyme activity: 50* %
[3]; pH 7
  % Enzyme activity: 24* %
[3]; pH 7.5
  % Enzyme activity: 12* %

## Propylene glycol
[5]; 4° C., freshly made control without polyol = 100%, listed as Prop. Glycol 2.5%
  % enzymatic activity of DispersinB (Mean): 119* %
[5]; 4° C., freshly made control without polyol = 100%, listed as Prop. Glycol 5%
  % enzymatic activity of DispersinB (Mean): 114* %
[5]; 4° C., freshly made control without polyol = 100%, listed as Prop. Glycol 10%
  % enzymatic activity of DispersinB (Mean): 117* %
[5]; 4° C., freshly made control without polyol = 100%, listed as Prop. Glycol 20%
  % enzymatic activity of DispersinB (Mean): 124* %
[5]; 4° C., freshly made control without polyol = 100%, listed as Prop. Glycol 30%
  % enzymatic activity of DispersinB (Mean): 106%
[5]; 42° C. for 3 hours, control without polyol = 100%, listed as Prop. Glycol 2.5%
  % enzymatic activity of DispersinB (Mean): 109* %
[5]; 42° C. for 3 hours, control without polyol = 100%, listed as Prop. Glycol 5%
  % enzymatic activity of DispersinB (Mean): 93* %
[5]; 42° C. for 3 hours, control without polyol = 100%, listed as Prop. Glycol 10%
  % enzymatic activity of DispersinB (Mean): 95* %
[5]; 42° C. for 3 hours, control without polyol = 100%, listed as Prop. Glycol 20%
  % enzymatic activity of DispersinB (Mean): 46* %
[5]; 42° C., 52° C., and 62° C.
  temperature stabilizing effect on DispersinB at elevated temperatures: did not exhibit temperature stabilizing effects
